Assay: xn = mol fraction of the nth substance listed
Details: Liquid, Vibrating tube method

CCCCCCCCCCC [undecane] + CCCCCCC
Details	mass density [kg/m3]
352.96 K, 20000 kPa, x2 = 0.05	712.1
352.96 K, 20000 kPa, x2 = 0.5063	690.9
352.96 K, 21000 kPa, x2 = 0.05	712.9
352.96 K, 21001 kPa, x2 = 0.5063	691.8
352.96 K, 22001 kPa, x2 = 0.05	713.8
352.96 K, 22050 kPa, x2 = 0.5063	692.7
352.96 K, 23000 kPa, x2 = 0.05	714.6
352.96 K, 23000 kPa, x2 = 0.5063	693.6
352.96 K, 24000 kPa, x2 = 0.05	715.4
352.96 K, 24000 kPa, x2 = 0.5063	694.5
352.96 K, 25000 kPa, x2 = 0.05	716.2
352.96 K, 25000 kPa, x2 = 0.5063	695.3
352.97 K, 1000 kPa, x2 = 0.7482	654
352.97 K, 2000 kPa, x2 = 0.7482	655.3
352.97 K, 3000 kPa, x2 = 0.7482	656.6
352.97 K, 4000 kPa, x2 = 0.7482	657.8
352.97 K, 5000 kPa, x2 = 0.7482	659.1
352.97 K, 6000 kPa, x2 = 0.7482	660.3
352.97 K, 7000 kPa, x2 = 0.7482	661.5
352.97 K, 8000 kPa, x2 = 0.7482	662.7
352.97 K, 9000 kPa, x2 = 0.7482	663.9
352.97 K, 10000 kPa, x2 = 0.7482	665
352.97 K, 11000 kPa, x2 = 0.7482	666.1
352.97 K, 12000 kPa, x2 = 0.7482	667.2
352.97 K, 13000 kPa, x2 = 0.7482	668.3
352.97 K, 14000 kPa, x2 = 0.7482	669.4
352.97 K, 15000 kPa, x2 = 0.7482	670.5
352.97 K, 16000 kPa, x2 = 0.7482	671.5
352.97 K, 17000 kPa, x2 = 0.7482	672.5
352.97 K, 18000 kPa, x2 = 0.7482	673.5
352.97 K, 19000 kPa, x2 = 0.7482	674.5
352.97 K, 20000 kPa, x2 = 0.7482	675.5
352.97 K, 21000 kPa, x2 = 0.7482	676.5
352.97 K, 22000 kPa, x2 = 0.7482	677.4
352.97 K, 23000 kPa, x2 = 0.7482	678.3
352.97 K, 24000 kPa, x2 = 0.7482	679.2
352.97 K, 25000 kPa, x2 = 0.7482	680.2
352.99 K, 1015 kPa, x2 = 0.2346	685.9
352.99 K, 2016 kPa, x2 = 0.2346	687
352.99 K, 3016 kPa, x2 = 0.2346	688.1
352.99 K, 4017 kPa, x2 = 0.2346	689.2
352.99 K, 5018 kPa, x2 = 0.2346	690.2
352.99 K, 6019 kPa, x2 = 0.2346	691.3
352.99 K, 7020 kPa, x2 = 0.2346	692.3
352.99 K, 8020 kPa, x2 = 0.2346	693.3
352.99 K, 9021 kPa, x2 = 0.2346	694.4
352.99 K, 10022 kPa, x2 = 0.2346	695.3
352.99 K, 11022 kPa, x2 = 0.2346	696.3
352.99 K, 12023 kPa, x2 = 0.2346	697.3
352.99 K, 13024 kPa, x2 = 0.2346	698.2
352.99 K, 14025 kPa, x2 = 0.2346	699.2
352.99 K, 15026 kPa, x2 = 0.2346	700.1
352.99 K, 16027 kPa, x2 = 0.2346	701
352.99 K, 17028 kPa, x2 = 0.2346	701.9
352.99 K, 18030 kPa, x2 = 0.2346	702.8
352.99 K, 19030 kPa, x2 = 0.2346	703.7
352.99 K, 20031 kPa, x2 = 0.2346	704.5
352.99 K, 21066 kPa, x2 = 0.2346	705.4
352.99 K, 22068 kPa, x2 = 0.2346	706.3
352.99 K, 23071 kPa, x2 = 0.2346	707.1
352.99 K, 24073 kPa, x2 = 0.2346	707.9
352.99 K, 25076 kPa, x2 = 0.2346	708.7
362.87 K, 1001 kPa, x2 = 0.9511	628.1
362.87 K, 2000 kPa, x2 = 0.9511	629.7
362.87 K, 3000 kPa, x2 = 0.9511	631.1
362.87 K, 4000 kPa, x2 = 0.9511	632.6
362.87 K, 5000 kPa, x2 = 0.9511	634
362.87 K, 6000 kPa, x2 = 0.9511	635.4
362.87 K, 7000 kPa, x2 = 0.9511	636.8
362.87 K, 8000 kPa, x2 = 0.9511	638.2
362.87 K, 9000 kPa, x2 = 0.9511	639.5
362.87 K, 10000 kPa, x2 = 0.9511	640.8
362.87 K, 11000 kPa, x2 = 0.9511	642.1
362.87 K, 12000 kPa, x2 = 0.9511	643.4
362.87 K, 13000 kPa, x2 = 0.9511	644.6
362.87 K, 14001 kPa, x2 = 0.9511	645.8
362.87 K, 15001 kPa, x2 = 0.9511	647
362.87 K, 16000 kPa, x2 = 0.9511	648.2
362.87 K, 17001 kPa, x2 = 0.9511	649.3
362.87 K, 18001 kPa, x2 = 0.9511	650.5
362.87 K, 19000 kPa, x2 = 0.9511	651.6
362.87 K, 20000 kPa, x2 = 0.9511	652.7
362.87 K, 21001 kPa, x2 = 0.9511	653.8
362.87 K, 22000 kPa, x2 = 0.9511	654.9
362.87 K, 23001 kPa, x2 = 0.9511	655.9
362.87 K, 24000 kPa, x2 = 0.9511	656.9
362.87 K, 25000 kPa, x2 = 0.9511	658
362.91 K, 1000 kPa, x2 = 0.7482	645.5
362.91 K, 1023 kPa, x2 = 0.2346	678.2
362.91 K, 2000 kPa, x2 = 0.7482	646.9
362.91 K, 2024 kPa, x2 = 0.2346	679.4
362.91 K, 3000 kPa, x2 = 0.7482	648.3
362.91 K, 3026 kPa, x2 = 0.2346	680.6

From the NIST ThermoML archive (doi:10.1021/je400055v)
